Measurements: ChEMBL document CHEMBL1201862, “PubChem BioAssay data set” (2004)
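Results reflect a 48-hour exposure of cells in 96-well plates to compound at five concentrations. GI50 marks 50% less growth.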 Calls of active or inactive are those of the source. Rule as the data show it: active = GI50 up to about 1.1 µM and inactive = higher.

Assays:
Assay in all cases: NCI-60 cell line screen, 48 h
786-0 = system: 786-0
A549 = system: A549
BT-549 = system: BT-549
HCT-116 = system: HCT-116
HT-29 = system: HT-29
Hs-578T = system: Hs-578T
IGROV-1 = system: IGROV-1
KM12 = system: KM12
LOX IMVI = system: LOX IMVI
M14 = system: M14
Malme-3M = system: Malme-3M
OVCAR-3 = system: OVCAR-3
OVCAR-4 = system: OVCAR-4
RPMI-8226 = system: RPMI-8226
SNB-75 = system: SNB-75
SR = system: SR
SW-620 = system: SW-620
U-251 = system: U-251
UACC-62 = system: UACC-62
UO-31 = system: UO-31

Measured: GI50

COc1cc(-c2cc(O)c(-c3ccc4ccccc4n3)c(O)n2)cc(OC)c1OC
inactive: 786-0 34.4 µM | A549 53.7 µM | BT-549 80.4 µM | HCT-116 19 µM | HT-29 18.6 µM | Hs-578T 57.4 µM | IGROV-1 43.5 µM | KM12 14.8 µM | LOX IMVI 19.1 µM | M14 25.4 µM | Malme-3M 13.1 µM | OVCAR-3 12.4 µM | OVCAR-4 > 38.5 µM | RPMI-8226 > 50 µM | SNB-75 17.9 µM | SR 1.77 µM | SW-620 19.1 µM | U-251 22.9 µM | UACC-62 15.2 µM | UO-31 68.7 µM
